{
  "source": "patent US6440954B1",
  "about": "“Inhibition of vascular smooth muscle cell proliferation” (President and Fellows of Harvard College, priority 1997, dated 2002)",
  "key": {"RASMCs [1]": {"tested_on": "RASMCs", "experiment": "[3H]thymidine incorporation in RASMCs", "type": "cell-based, rat", "protocol": "(§1) RASMCs were harvested from the thoracic aortas of adult male Sprague-Dawley rats (200-250 g) by enzymatic dissociation as described (Tsai et al., Proc. Natl. Acad. Sci. USA 91, 6369-6373 (1994)). The cells were grown in DMEM supplemented with 10% FCS, penicillin (100 U/ml), streptomycin (100 μg/ml), glutamine ([…]), and 25 mM Hepes (pH 7.4) in a humidified incubator (37° C., 5% CO2). HASMCs (Clonetics, San Diego) were grown in M199 medium (GIBCO BRL, Grand Island, N.Y.) supplemented with 20% FCS, penicillin (100 U/ml), streptomycin (100 μg/ml), and 25 mM Hepes (pH 7.4). Cells from passages 5-9 were used. RASMCs and HASMCs were cultured in 24-well plates containing an appropriate growth medium (DMEM plus 10% FCS for RASMCs, and M199 plus 20% FCS for HASMCs). After the cells had grown to 70-80% confluence, they were rendered quiescent by incubation for 72 h in DMEM (for RASMCs) or M199 (for HASMCs) containing 0.4% charcoal/dextran-treated FCS (FIGS. 2a and 2d) or 0.4% calf serum (CS) (FIGS. 2b and 2c). Phenol red-free DMEM was used in the experiments with estradiol (FIG. 2a). […] After incubation, the cells were washed with Dulbecco's PBS, fixed in cold 10% TCA for at least 2 h, and then washed with 95% ethanol. Incorporated [^3H]thymidine was extracted in 0.2 N NaOH and measured in a liquid scintillation counter."}, "RASMCs [2]": {"tested_on": "RASMCs", "experiment": "Cell counting (RASMC proliferation)", "type": "cell-based, rat", "conditions": "FIG. 3b", "protocol": "RASMCs (2×10^4) were seeded onto 6-well plates and grown in DMEM supplemented with 10% FCS. […] Medium and progesterone were changed daily. Cells were counted in a Coulter apparatus at various times after their removal from the plates with trypsin-EDTA."}, "[3]": {"tested_on": "cyclin A, E, B and D1 mRNAs in RASMCs", "experiment": "Northern analysis of cyclin mRNAs in RASMCs", "type": "cell-based, rat", "conditions": "24 h after treatment, FIG. 4", "protocol": "Total RNA from RASMCs was prepared from cultured RASMCs by guanidinium isothiocyanate extraction and centrifugation through cesium chloride. […] RNA samples (20 μg/lane) were electrophoresed on 1.3% formaldehyde-agarose gel, and then transferred onto nitrocellulose filters. The filters were hybridized to ^32P-labeled human cyclin probes as described (Lee et al., J. Biol. Chem. 266, 16188-16192 (1991); Lee et al., J. Biol Chem. 269, 12032-12039 (1994)). To normalize RNA content of each lane, the filters were washed at 80° C. in 50% formamide solution to remove the cyclin probes, and then hybridized with oligonucleotide probes for 28S RNA. Hybridized filters were washed in 30 mM NaCl, 3 mM sodium citrate, and 0.1% sodium dodecyl sulfate at 55° C. Radioactive signals were visualized on Kodak XAR film or PhosphorImager screens (Molecular Dynamics, Inc. Sunnyvale, Calif.)."}, "HASMCs": {"tested_on": "HASMCs", "experiment": "[3H]thymidine incorporation in HASMCs", "type": "cell-based, human", "conditions": "quiescent HASMCs, 24 h incubation, FIG. 2d", "protocol": "as §1"}},
  "data": [
    {"smiles": "CC(=O)[C@H]1CC[C@H]2[C@@H]3CCC4=CC(=O)CC[C@]4(C)[C@H]3CC[C@]12C", "note": "[progesterone]", "values": [
      {"measurement": "effect of serum (FCS) concentration on progesterone-induced inhibition of [3H]thymidine incorporation", "setting": "RASMCs [1]; RASMCs, progesterone 500 nM, FIG. 2c", "result": "counteracted by serum in a dose-dependent manner"},
      {"measurement": "effect on [3H]thymidine incorporation in RASMCs", "setting": "RASMCs [1]; quiescent RASMCs, 24 h incubation, FIG. 2a/2b", "result": "inhibited"},
      {"measurement": "reduction in RASMC cell growth, dose dependence", "setting": "RASMCs [2]", "result": "dose-dependent"},
      {"measurement": "cyclin A mRNA level", "setting": "[3]", "result": "downregulated"},
      {"measurement": "cyclin B mRNA level", "setting": "[3]", "result": "did not change"},
      {"measurement": "cyclin D1 mRNA level", "setting": "[3]", "result": "did not change"},
      {"measurement": "cyclin E mRNA level", "setting": "[3]", "result": "downregulated"},
      {"measurement": "effect on [3H]thymidine incorporation in HASMCs", "setting": "HASMCs", "result": "dose-dependent inhibition"}
    ]}
  ]
}
